How the values were obtained:
[1] = biological target: Alexa-Fluor 488 streptavidin (Streptomyces avidinii, UniProt P22629); experiment: Release study of fluorescent streptavidin from agarose-desthiobiotin hydrogels; settings: for release of fluorescent streptavidin from the hydrogel (rate, in words): 1 wt % Ag-D gel, insoluble biotin derivative, PBS
Experimental: Ag-D was dissolved in 0.1M PBS at 2 wt %, Alexa-Fluor 488 streptavidin was subsequently added and the mixture was incubated at 37° C. for 2 h. […] Gels were cured at 4 C for 20 min to 1 hr and initial fluorescent readings of the gel were taken. 200 uL of PBS was subsequently dispensed overtop of the gels and collected and replenished at specific time intervals. The loss of fluorescence as well as the released fluorescent streptavidin was measured at specific time points (FIGS. 5B and 6).

[2] = Transparency of agarose hydrogels with solid suspension of oleylbiotin; type: physicochemical; settings: solid suspension in agarose hydrogel
[3] = test system: HUVEC
Experimental: Additionally, toxicity studies were performed using the MTS assay using HUVEC, assessing the toxicity of the components of the drug delivery system as well as the complete drug delivery system (FIGS. 11 A and B).

Chain of Alexa-Fluor 488 streptavidin (P22629 25-183): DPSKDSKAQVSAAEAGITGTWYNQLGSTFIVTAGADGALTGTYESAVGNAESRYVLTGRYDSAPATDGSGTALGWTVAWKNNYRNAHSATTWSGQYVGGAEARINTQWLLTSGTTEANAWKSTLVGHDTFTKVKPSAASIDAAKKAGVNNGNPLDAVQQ

O=C(O)CCCC[C@@H]1SC[C@@H]2NC(=O)N[C@@H]21 [biotin, reference compound]
release of fluorescent streptavidin from the hydrogel (rate, in words) [1]: most rapid release

Tert-butyl biotin
release of fluorescent streptavidin from the hydrogel (rate, in words) [1]: slower release

oleyl-biotin
release of fluorescent streptavidin from the hydrogel (rate, in words) [1]: slowest and longest release | time over which oleylbiotin concentration modulates the release of streptavidin ([1]; various oleylbiotin concentrations, system of Example 1): at least 150 days | duration of streptavidin release (extrapolation of preliminary experiments) ([1]; wild-type streptavidin): > 100 days | concentration that did not decrease the transparency of agarose gels [2]: ≤ 80 µM | toxicity of single components of the drug delivery system [3]: None of the components display any inherent toxicity except for the solid suspension of oleylbiotin

Source: patent US11660290B2, “Affinity based drug release formulations” (McMaster University, priority 2016, dated 2023)
